In ChEMBL document CHEMBL3885861, “Open TG-GATES”:

Species: Rattus norvegicus
Experiment: Open TG-GATES - Regimen: Single
Format: toxicity, organism-based, Sprague-Dawley
Design: regimen Single, gender Male, age 6 weeks
Conditions: in vivo, po, 100 mg/kg, route gavage, dose level High; for APTT / Bas / Eos / Fbg / Hb / Ht / Lym / MCH / MCHC / MCV / Mono / Neu / PT / Plat / RBC / Ret / WBC: tissue Blood; for KIDNEY_L / KIDNEY_R / KIDNEY_TOTAL: tissue Kidney; for LIVER: tissue Liver; for A/G / ALP / ALT / AST / BUN / CRE / Ca / Cl / DBIL / GLC / IP / K / LDH / Na / PL / RALB / TBIL / TC / TG / TP / gamma-GTP: tissue Plasma

With `CCN(CC)N=O` [N-NITROSODIETHYLAMINE] the TERMINAL_BW (3 h) was 221.2 g, the APTT (3 h) was 19.4 s and the Bas (3 h) was 0%. For the same compound, the Eos (3 h) was 1%, the Fbg (3 h) was 208.2 mg/dL and the Hb (3 h) was 13.2 g/dL. It also gave a Ht (3 h) of 38.5%, a Lym (3 h) of 77.2% and an MCH (3 h) of 21.5 pg. It also gave an MCHC (3 h) of 34.2%, an MCV (3 h) of 62.7 fL and a Mono (3 h) of 1.4%. The Neu (3 h) was 19.2%, the PT (3 h) was 12 s and the Plat (3 h) was 113.8 x10_4/uL. It also gave an RBC (3 h) of 613.8 x10_4/ul, a Ret (3 h) of 7.2% and a WBC (3 h) of 60.2 x10_2/uL. It also gave a KIDNEY_L (3 h) of 1 g, a KIDNEY_R (3 h) of 1 g and a KIDNEY_TOTAL (3 h) of 2 g. The LIVER (3 h) was 9 g, the A/G (3 h) was 1.7 and the ALP (3 h) was 781 IU/L. It also gave an ALT (3 h) of 39.6 IU/L, an AST (3 h) of 73.6 IU/L and a BUN (3 h) of 9.8 mg/dL. The CRE (3 h) was 0.4 mg/dL, the Ca (3 h) was 10.2 mg/dL and the Cl (3 h) was 102.2 meq/L. The DBIL (3 h) was 0.056 mg/dL, the GLC (3 h) was 191 mg/dL and the IP (3 h) was 8.5 mg/dL. It also gave a K (3 h) of 3.5 meq/L, an LDH (3 h) of 162 IU/L and a Na (3 h) of 140.8 meq/L. For the same compound, the PL (3 h) was 124.8 mg/dL, the RALB (3 h) was 3.4 g/dL and the TBIL (3 h) was 0.1 mg/dL. For the same compound, the TC (3 h) was 85 mg/dL, the TG (3 h) was 24.2 mg/dL and the TP (3 h) was 5.5 g/dL. For the same compound, the gamma-GTP (3 h) was 1.2 IU/L, the TERMINAL_BW (6 h) was 218 g and the APTT (6 h) was 18.8 s. It also gave a Bas (6 h) of 0.4%, an Eos (6 h) of 0.8% and a Fbg (6 h) of 214.6 mg/dL. For the same compound, the Hb (6 h) was 13.2 g/dL, the Ht (6 h) was 38.2% and the Lym (6 h) was 80.2%. It also gave an MCH (6 h) of 21.2 pg, an MCHC (6 h) of 34.6% and an MCV (6 h) of 61.4 fL. For the same compound, the Mono (6 h) was 2%, the Neu (6 h) was 16% and the PT (6 h) was 12.7 s. The Plat (6 h) was 142.5 x10_4/uL, the RBC (6 h) was 623 x10_4/ul and the Ret (6 h) was 6.6%. It also gave a WBC (6 h) of 83.6 x10_2/uL, a KIDNEY_L (6 h) of 1 g and a KIDNEY_R (6 h) of 1 g. The KIDNEY_TOTAL (6 h) was 2 g, the LIVER (6 h) was 9.8 g and the A/G (6 h) was 1.6. For the same compound, the ALP (6 h) was 784.2 IU/L, the ALT (6 h) was 38.2 IU/L and the AST (6 h) was 73.4 IU/L. The BUN (6 h) was 12 mg/dL, the CRE (6 h) was 0.4 mg/dL and the Ca (6 h) was 10.2 mg/dL. For the same compound, the Cl (6 h) was 103.4 meq/L, the DBIL (6 h) was 0.068 mg/dL and the GLC (6 h) was 192.8 mg/dL. It also gave an IP (6 h) of 8.3 mg/dL, a K (6 h) of 3.5 meq/L and an LDH (6 h) of 207.8 IU/L. For the same compound, the Na (6 h) was 140.4 meq/L, the PL (6 h) was 103.6 mg/dL and the RALB (6 h) was 3.4 g/dL. It also gave a TBIL (6 h) of 0.1 mg/dL, a TC (6 h) of 68.8 mg/dL and a TG (6 h) of 24 mg/dL. For the same compound, the TP (6 h) was 5.5 g/dL, the gamma-GTP (6 h) was 1.4 IU/L and the TERMINAL_BW (9 h) was 225.6 g. The APTT (9 h) was 19.6 s, the Bas (9 h) was 0.6% and the Eos (9 h) was 1%. For the same compound, the Fbg (9 h) was 226.6 mg/dL, the Hb (9 h) was 13.7 g/dL and the Ht (9 h) was 39.4%. For the same compound, the Lym (9 h) was 71.6%, the MCH (9 h) was 21.4 pg and the MCHC (9 h) was 34.9%. It also gave an MCV (9 h) of 61.4 fL, a Mono (9 h) of 5% and a Neu (9 h) of 20.4%. For the same compound, the PT (9 h) was 13.8 s, the Plat (9 h) was 122.7 x10_4/uL and the RBC (9 h) was 642 x10_4/ul. It also gave a Ret (9 h) of 6.9%, a WBC (9 h) of 78.5 x10_2/uL and a KIDNEY_L (9 h) of 1 g. For the same compound, the KIDNEY_R (9 h) was 1 g, the KIDNEY_TOTAL (9 h) was 2 g and the LIVER (9 h) was 9.7 g. For the same compound, the A/G (9 h) was 1.6, the ALP (9 h) was 795 IU/L and the ALT (9 h) was 35.6 IU/L. The AST (9 h) was 87.8 IU/L, the BUN (9 h) was 14.2 mg/dL and the CRE (9 h) was 0.4 mg/dL. It also gave a Ca (9 h) of 10.3 mg/dL, a Cl (9 h) of 103.2 meq/L and a DBIL (9 h) of 0.064 mg/dL. The GLC (9 h) was 194.4 mg/dL, the IP (9 h) was 8.2 mg/dL and the K (9 h) was 3.7 meq/L. For the same compound, the LDH (9 h) was 267.2 IU/L, the Na (9 h) was 141.6 meq/L and the PL (9 h) was 110.4 mg/dL. It also gave an RALB (9 h) of 3.4 g/dL, a TBIL (9 h) of 0.1 mg/dL and a TC (9 h) of 73.4 mg/dL. It also gave a TG (9 h) of 28.2 mg/dL, a TP (9 h) of 5.5 g/dL and a gamma-GTP (9 h) of 1.6 IU/L. For the same compound, the TERMINAL_BW (24 h) was 216.1 g, the APTT (24 h) was 19 s and the Bas (24 h) was 0.8%. For the same compound, the Eos (24 h) was 1.2%, the Fbg (24 h) was 225.6 mg/dL and the Hb (24 h) was 15.1 g/dL. It also gave a Ht (24 h) of 44.4%, a Lym (24 h) of 72.4% and an MCH (24 h) of 21 pg. The MCHC (24 h) was 34%, the MCV (24 h) was 61.7 fL and the Mono (24 h) was 6%. For the same compound, the Neu (24 h) was 17.8%, the PT (24 h) was 17 s and the Plat (24 h) was 130.3 x10_4/uL. For the same compound, the RBC (24 h) was 720.2 x10_4/ul, the Ret (24 h) was 6.5% and the WBC (24 h) was 83.1 x10_2/uL. For the same compound, the KIDNEY_L (24 h) was 1 g, the KIDNEY_R (24 h) was 1 g and the KIDNEY_TOTAL (24 h) was 2 g. The LIVER (24 h) was 8.2 g, the A/G (24 h) was 1.7 and the ALP (24 h) was 955.6 IU/L. For the same compound, the ALT (24 h) was 56.2 IU/L, the AST (24 h) was 160 IU/L and the BUN (24 h) was 13.4 mg/dL. The CRE (24 h) was 0.4 mg/dL, the Ca (24 h) was 10.4 mg/dL and the Cl (24 h) was 104.2 meq/L. The DBIL (24 h) was 0.1 mg/dL, the GLC (24 h) was 179.6 mg/dL and the IP (24 h) was 8.4 mg/dL. The K (24 h) was 4.1 meq/L, the LDH (24 h) was 348.8 IU/L and the Na (24 h) was 140.6 meq/L. It also gave a PL (24 h) of 112.2 mg/dL, an RALB (24 h) of 3.3 g/dL and a TBIL (24 h) of 0.2 mg/dL. The TC (24 h) was 65.2 mg/dL, the TG (24 h) was 25.6 mg/dL and the TP (24 h) was 5.3 g/dL. For the same compound, the gamma-GTP (24 h) was 1.8 IU/L.
